Test results as given in patent US10456405B2, “Nitric oxide-releasing prodrug molecule of substituted quinazolines” (ZHEJIANG HUAHAI PHARMACEUTICAL CO., LTD, priority 2015, dated 2019).
Like-named read-outs stand apart in the source and are kept apart here.

Experiments:
db/db mice = assay: Serum NO and heart eNOS in db/db mice after oral gavage; assay type: in vivo; details: blank = 100, oral gavage 150 mg/kg (isosorbide mononitrate 5 mg/kg), 1 h after administration (H101: 2 h)
From the text: Experimental method: 25 eight-week-old db/db mice (strain: BKS.Cg−+Leprdb/+leprdb/JclSlac; grade: SPF; gender: male; source: Shanghai SLAC Laboratory Animal Co., Ltd.) were selected. 3 of them were selected as the blank administration control. 2 mice were used as the positive drug control (isosorbide mononitrate). The remaining 20 mice were randomly divided into 5 groups, 4 mice per group, which are H101 administration group, H111 administration group, H116 administration group, H119 administration group, and H130 administration group. The tested compounds of the positive drug control group and each administration group were dissolved in DMSO. Then PEG400 was added. The mixture was shaken and mixed thoroughly. At last, 10% of HP-β-CD was added. The mixture was shaken and mixed thoroughly. The ratio of each solvent was DMSO: PEG400:10% of HP-β-CD=5:67.5:27.5. The administration group was administered by oral gavage at the dose of 150 mg/kg. The positive drug control group was administered at the dose of 5 mg/kg. The mice in the H101 administration group were sacrificed at 2 h after the administration. The mice in the remaining administration groups were sacrificed at 1 h after the administration. The blood was collected respectively into 1.5 mL centrifuge tube, standing at room temperature for more than 30 min, and then centrifuged (3000 rpm, 10 min). The supernatant serum was aspirated, and stored at −80° C. for testing. After the blood was collected, the heart was cut with the thoracic aorta. Three parts of the heart were weighed and placed into cryovials, rapidly frozen in liquid nitrogen, and cryopreserved at −80° C. for testing. The aorta and aortic arch were weighed, rapidly frozen in liquid nitrogen, and cryopreserved at −80° C. for testing. The content of NO in the serum of the […] mice was determined by a total NO test kit (Beyotime). The content of NOS in the heart of the mice was determined with an NOS test kit (Beyotime). The content of eNOS was calculated by the difference between the measured values before and after adding the eNOS inhibitor L-NAME (Beyotime).

apoE−/− mice = assay: apoE−/− mouse atherosclerosis model, high-fat diet 10 weeks; assay type: in vivo; details: for Aorta eNOS / ApoA1 / Heart eNOS / Serum NO / Serum eNOS: blank administration group = 100, 150 mg/kg twice a day, 10 weeks; for HDL-C / LDL-C / TC: serum, high-fat diet 10 weeks, intragastric 150 mg/kg twice a day
From the text: Experimental method: 36 eight-week-old male apoE-/- mice were selected and randomly divided into a blank administration group, an […] administration group, an […] administration group, an […] administration group, an […] administration group, and an […] administration group, 6 mice per group. The mice in each group were fed with high-fat diet for 10 weeks. At the beginning of the high-fat feeding, the mice in each group were administrated. Each tested compound was intragastric administered at the dose of 150 mg/kg twice a day. The blank administration group was given corresponding dose of saline. […] After the blood was taken, the serum, heart, and aorta were isolated. The levels of total cholesterol (TC), high density lipoprotein cholesterol (HDL-C), and low density lipoprotein cholesterol (LDL-C) in the serum of the mice in each group were measured by automatic biochemical analyzer. The ApoA1 expression level was detected with an ApoA1 kit. The content of NO in the serum of the mice was determined with a total NO test kit (Beyotime). The NOS activities of the heart, aorta, and serum were determined with an NOS test kit (Beyotime). The content of eNOS was calculated by the difference between the measured values determined before and after adding eNOS inhibitor L-NAME (Beyotime).

[1] = rat, in vivo
Description: Experimental method: Intravenous injection solutions (the administration concentrations of the tested compounds were 1 mg/kg) and oral gastric perfusates (the administration concentrations of the test compounds were 5 mg/kg) of the test compounds were prepared, and intravenously and orally administered to three SD rats, respectively. The concentrations of the whole blood for H130 at 0.083 h, 0.25 h, 0.5 h, 1 h, 2 h, 4 h, 8 h, and 24 h after administration were determined by LC-MS/MS, respectively. The pharmacokinetic parameters were compared by a drug-time curve. Sample pretreatment: 150 μL of the whole blood to be tested was aspirated accurately. 600 μL of internal standard solution (diluted to 0.5 μg/mL with methanol) was added, sufficiently mixed by a vortex mixer, and centrifuged at 13000 r/min for 20 min at 4° C. 3 μL of the supernatant was taken into a sample vial.
Chromatographic conditions: C18 reversed-phase chromatographic column; gradient elution with mobile phase A: water/acetonitrile (v:v=95:5) with 0.025% of formic acid and 1 mM of ammonium acetate added thereto, and mobile phase B: acetonitrile/water (v:v=95:5) with 0.025% of formic acid and 1 mM of ammonium acetate added thereto.

[2] = Release of nitric oxide in vitro (Griess reagent, nitrite); details: 10^−4 mol/L tested substance, phosphate buffer pH 7.4, cysteine 5 mmol/L, 37° C., 1 h; as nitrite
Method in brief: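 Compounds at final 10^−4 mol/L in pH 7.4 phosphate buffer with 5 mmol/L cysteine, incubated at 37 °C. At 1 h, nitrite measured with Griess reagent (A540) against a nitrite standard curve; NO release expressed as nitrite.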

| release of prototype compound H130 after administration [1] | AUCRatio (Dosage Calibration) ([1]; iv, 1 mg/kg) | AUCRatio (Dosage Calibration) ([1]; po, 5 mg/kg) | AUCRatio (Dosage Calibration) ([1]; SD, iv, 1 mg/kg) | AUCRatio (Dosage Calibration) ([1]; SD, po, 5 mg/kg) | Compound | Heart eNOS (db/db mice) | Serum NO (db/db mice) | Aorta eNOS (apoE−/− mice) | ApoA1 (apoE−/− mice) | Heart eNOS (apoE−/− mice) | Serum NO (apoE−/− mice) | Serum eNOS (apoE−/− mice) | HDL-C (apoE−/− mice) | LDL-C (apoE−/− mice) | TC (apoE−/− mice) | Amount of Released No [2] |
| --- | --- | --- | --- | --- | --- | --- | --- | --- | --- | --- | --- | --- | --- | --- | --- | --- |
| can be rapidly released | 54.9% | 41.8% | – | – | 2-[4-(5,7-dimethoxy-4-oxo-3,4-dihydro-quinazolin-2-yl)-2,6-dimethyl-phenoxy]-ethyl 4-(2-oxo-3-nitroxymethyl-1,2,5-oxadiazol-3-methyl)oxy-4-oxo-butyrate [Compound H111] | 165% | 154% | 127% | 118% | 145% | 134% | 132% | 83 ± 13 mg/dL | 296 ± 29 mg/dL | 1021 ± 57 mg/dL | 52.12 µM |
| can be rapidly released | – | – | 37.7% | 42.4% | COc1cc(OC)c2c(=O)[nH]c(-c3cc(C)c(OCCO[N+](=O)[O-])c(C)c3)nc2c1 [Compound H101, 2-(4-(2-nitrooxy-ethoxy)-3,5-dimethylphenyl)-5,7-dimethoxyquinazolin-4(3H)-one] | 162% | 142% | 132% | 126% | 135% | 126% | 128% | 78 ± 9 mg/dL | 273 ± 38 mg/dL | 985 ± 68 mg/dL | 5.97 µM |
| can be rapidly released | 55.6% | 0.84% | – | – | COc1cc(OC)c2c(=O)[nH]c(-c3cc(C)c(OCCOC(=O)OC4COC5C(O[N+](=O)[O-])COC45)c(C)c3)nc2c1 (stereo not drawn) [Compound H119, 2-[4-(5,7-dimethoxy-4-oxo-3,4-dihydro-quinazolin-2-yl)-2,6-dimethyl-phenoxy]-ethyl (6-nitroxy-hexahydrofuro[3,2-b]furan-3-yl)-carbonate] | 156% | 152% | 124% | 114% | 138% | 127% | 126% | 88 ± 14 mg/dL | 308 ± 35 mg/dL | 994 ± 85 mg/dL | 1.24 µM |
